Measurements published in US12486273B2 (Hoffmann-La Roche Inc., priority 2019, dated 2025).

Key:
[1] = molecular target: human TLR8 (Homo sapiens (Human), UniProt Q9NR97); test: HEK293-Blue-hTLR-8 cells assay; assay type: cell-based; conditions: HEK293-Blue-hTLR8 cells, R848 stimulation, 20 hrs, SEAP reporter; read-out: HEK/hTLR8 IC50
Source text: HEK293-Blue-hTLR-8 Cells Assay:
(§1) A stable HEK293-Blue-hTLR-8 cell line was purchased from InvivoGen (Cat. #: hkb-htlr8, San Diego, California, USA). These cells were originally designed for studying the stimulation of human TLR8 by monitoring the activation of NF-κB. A SEAP (secreted embryonic alkaline phosphatase) reporter gene was placed under the control of the IFN-β minimal promoter fused to five NF-κB and AP-1-binding sites. The SEAP was induced by activating NF-κB and AP-1 via stimulating HEK-Blue hTLR8 cells with TLR8 ligands. Therefore the reporter expression was declined by TLR8 antagonist under the stimulation of a ligand, such as R848, for incubation of 20 hrs. The cell culture supernatant SEAP reporter activity was determined using QUANTI-Blue™ kit (Cat. #: rep-Qb1, Invivogen, San Diego, Ca, USA) at a wavelength of 640 nm, a detection medium that turns purple or blue in the presence of alkaline phosphatase.
HEK293-Blue-hTLR8 cells were incubated at a density of 250,000-450,000 cells/mL in a volume of 170 μL in a 96-well plate in Dulbecco's Modified Eagle's medium (DMEM) containing 4.5 g/L glucose, 50 U/mL penicillin, […], […], 2 mM L-glutamine, 10% (v/v) heat-inactivated fetal bovine serum with addition of 20 μL test compound in a serial dilution in the presence of final DMSO at 1% and 10 μL of 60 μM R848 in above DMEM, perform incubation under 37° C. in a CO2 incubator for 20 hrs. Then 20 μL of the supernatant from each well was incubated with 180 μL Quanti-blue substrate solution at 37° C. for […] and the absorbance was read at 620˜655 nm using a spectrophotometer. The signaling pathway that TLR8 activation leads to downstream NF-κB activation has been widely accepted, and therefore similar reporter assay was modified for evaluating TLR8 antagonist.

[2] = molecular target: human TLR9 (Homo sapiens (Human), UniProt Q9NR96); test: HEK293-Blue-hTLR-9 cells assay; assay type: cell-based; conditions: HEK293-Blue-hTLR9 cells, ODN2006 stimulation, 20 hrs, SEAP reporter; read-out: HEK/hTLR9 IC50
human TLR9, sequence (Q9NR96 26-1032): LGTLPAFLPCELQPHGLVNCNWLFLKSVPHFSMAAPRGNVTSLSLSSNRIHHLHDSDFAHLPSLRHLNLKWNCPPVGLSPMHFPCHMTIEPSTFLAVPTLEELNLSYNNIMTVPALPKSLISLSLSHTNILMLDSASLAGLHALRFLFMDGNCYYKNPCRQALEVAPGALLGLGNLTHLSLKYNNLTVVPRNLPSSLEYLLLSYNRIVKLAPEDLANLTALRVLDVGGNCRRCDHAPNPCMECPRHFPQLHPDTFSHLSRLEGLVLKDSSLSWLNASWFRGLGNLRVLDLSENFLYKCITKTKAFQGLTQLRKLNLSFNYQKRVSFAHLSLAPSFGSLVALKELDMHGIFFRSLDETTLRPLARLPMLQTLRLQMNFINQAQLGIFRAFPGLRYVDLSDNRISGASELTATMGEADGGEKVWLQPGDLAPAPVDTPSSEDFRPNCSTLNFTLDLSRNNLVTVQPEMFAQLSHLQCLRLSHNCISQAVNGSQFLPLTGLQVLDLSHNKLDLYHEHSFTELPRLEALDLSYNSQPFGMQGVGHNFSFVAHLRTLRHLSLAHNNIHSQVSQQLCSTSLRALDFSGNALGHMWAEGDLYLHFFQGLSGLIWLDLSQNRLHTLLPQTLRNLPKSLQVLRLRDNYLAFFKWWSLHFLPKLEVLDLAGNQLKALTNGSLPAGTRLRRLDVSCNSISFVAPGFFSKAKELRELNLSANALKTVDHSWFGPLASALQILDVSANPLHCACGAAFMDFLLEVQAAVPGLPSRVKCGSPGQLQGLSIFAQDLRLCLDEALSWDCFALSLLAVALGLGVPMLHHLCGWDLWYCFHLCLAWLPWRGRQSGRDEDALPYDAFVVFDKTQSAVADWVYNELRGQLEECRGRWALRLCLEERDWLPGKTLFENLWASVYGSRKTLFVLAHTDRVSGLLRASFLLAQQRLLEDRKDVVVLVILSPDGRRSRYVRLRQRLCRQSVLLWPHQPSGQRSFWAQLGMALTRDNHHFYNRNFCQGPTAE
Source text: HEK293-Blue-hTLR-9 Cells Assay:
A stable HEK293-Blue-hTLR-9 cell line was purchased from InvivoGen (Cat. #: hkb-htlr9, San Diego, California, USA). These cells were originally designed for studying the stimulation of human TLR9 by monitoring the activation of NF-κB. A SEAP (secreted embryonic alkaline phosphatase) reporter gene was placed under the control of the IFN-β minimal promoter fused to five NF-κB and AP-1-binding sites. The SEAP was induced by activating NF-κB and AP-via stimulating HEK-Blue hTLR9 cells with TLR9 ligands. Therefore the reporter expression was declined by TLR9 antagonist under the stimulation of a ligand, such as ODN2006 (Cat. #: tlrl-2006-1, Invivogen, San Diego, California, USA), for incubation of 20 hrs. The cell culture supernatant SEAP reporter activity was determined using QUANTI-Blue™ kit (Cat. #: rep-qb1, Invivogen, San Diego, California, USA) at a wavelength of 640 nm, a detection medium that turns purple or blue in the presence of alkaline phosphatase.
(§2) HEK293-Blue-hTLR9 cells were incubated at a density of 250,000˜450,000 cells/mL in a volume of 170 μL in a 96-well plate in Dulbecco's Modified Eagle's medium (DMEM) containing 4.5 g/L glucose, 50 U/mL penicillin, […], […], 2 mM L-glutamine, 10% (v/v) heat-inactivated fetal bovine serum with addition of 20 μL test compound in a serial dilution in the presence of final DMSO at 1% and 10 μL of 20 μM ODN2006 in above DMEM, perform incubation under 37° C. in a CO2 incubator for 20 hrs. Then 20 μL of the supernatant from each well was incubated with 180 μL Quanti-blue substrate solution at 37° C. for 2 h and the absorbance was read at 620-655 nm using a spectrophotometer. The signaling pathway that TLR9 activation leads to downstream NF-κB activation has been widely accepted, and therefore similar reporter assay was modified for evaluating TLR9 antagonist.

[3] = Human microsomal stability assay; assay type: in vitro ADME; conditions: human liver microsomes, 1 μM test compound, 37° C., pH 7.4
Protocol: Human Microsomal Stability Assay
Human liver microsomes (Cat. NO.: 452117, Corning, USA) were preincubated with test compound for 10 minutes at 37° C. in 100 mM potassium phosphate buffer, pH 7.4. The reactions were initiated by adding NADPH regenerating system. The final incubation mixtures contained 1 μM test compound, 0.5 mg/mL liver microsomal protein, 1 mM MgCl2, 1 mM NADP, 1 unit/mL isocitric dehydrogenase and 6 mM isocitric acid in 100 mM potassium phosphate buffer, pH 7.4. After incubation times of 0, 3, 6, 9, 15 and 30 minutes at 37° C., 300 μL of cold ACN (including internal standard) was added to 100 μL incubation mixture to terminate the reaction. Following precipitation and centrifugation, 100 μL supernatant will be taken out and added 300 μL water. The amount of compound remaining in the samples was determined by LC-MS/MS. Controls of no NADPH regenerating system at zero and 30 minutes were also prepared and analyzed. The results were categorized as: low (<7.0 mL/min/kg), medium (7.0-16.2 mL/min/kg) and high (16.2-23.2 mL/min/kg).

[4] = molecular target: human TLR7 (Homo sapiens (Human), UniProt Q9NYK1); test: HEK293-Blue-hTLR-7 cells assay; assay type: cell-based; conditions: HEK293-Blue-hTLR7 cells, R848 stimulation, 20 hrs, SEAP reporter; read-out: HEK/hTLR7 IC50
human TLR7, sequence (Q9NYK1 27-1049): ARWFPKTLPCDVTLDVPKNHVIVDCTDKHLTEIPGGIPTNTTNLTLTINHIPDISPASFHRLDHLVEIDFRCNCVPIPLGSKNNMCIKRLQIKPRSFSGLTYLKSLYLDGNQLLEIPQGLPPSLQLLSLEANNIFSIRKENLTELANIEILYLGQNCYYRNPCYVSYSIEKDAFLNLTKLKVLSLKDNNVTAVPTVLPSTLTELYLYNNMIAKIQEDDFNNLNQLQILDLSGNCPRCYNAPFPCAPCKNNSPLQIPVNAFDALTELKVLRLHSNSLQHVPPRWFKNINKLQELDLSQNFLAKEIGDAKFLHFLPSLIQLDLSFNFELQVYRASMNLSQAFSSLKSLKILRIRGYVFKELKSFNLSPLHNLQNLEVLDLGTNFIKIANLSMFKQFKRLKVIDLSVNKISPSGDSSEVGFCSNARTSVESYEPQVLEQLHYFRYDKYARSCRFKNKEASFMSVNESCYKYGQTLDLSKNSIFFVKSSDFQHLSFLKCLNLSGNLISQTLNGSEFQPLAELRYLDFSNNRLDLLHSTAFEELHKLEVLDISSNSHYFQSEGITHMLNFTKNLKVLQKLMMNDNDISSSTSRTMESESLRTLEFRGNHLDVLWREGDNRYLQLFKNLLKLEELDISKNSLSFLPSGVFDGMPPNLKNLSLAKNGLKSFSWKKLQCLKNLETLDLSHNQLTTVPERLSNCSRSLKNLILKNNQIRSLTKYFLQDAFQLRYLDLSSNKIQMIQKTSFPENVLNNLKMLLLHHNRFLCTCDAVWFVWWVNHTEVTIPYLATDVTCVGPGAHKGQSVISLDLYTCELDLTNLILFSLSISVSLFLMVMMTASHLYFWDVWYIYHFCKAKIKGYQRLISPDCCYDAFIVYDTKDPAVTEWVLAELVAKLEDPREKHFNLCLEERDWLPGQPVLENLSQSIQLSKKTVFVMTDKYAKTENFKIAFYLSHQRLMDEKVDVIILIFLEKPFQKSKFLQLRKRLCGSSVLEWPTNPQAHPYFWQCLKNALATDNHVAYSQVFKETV
Source text: HEK293-BLUE-hTLR-7 CELLS ASSAY:
as §1, with “HEK293-Blue-hTLR-7” for “HEK293-Blue-hTLR-8”, “hkb-htlr7,” for “hkb-htlr8,”, “TLR7” for “TLR8”, “hTLR7” for “hTLR8”, “R848 (Resiquimod),” for “R848,”, “rep-qb1,” for “rep-Qb1,”
as §2, with “HEK293-Blue-hTLR7 cells” for “HEK293-Blue-hTLR9 cells”, “μM R848” for “μM ODN2006”, “2 hrs” for “2 h”, “that TLR7” for “that TLR9”, “evaluating TLR7” for “evaluating TLR9”

human TLR8, sequence (Q9NR97 27-1041): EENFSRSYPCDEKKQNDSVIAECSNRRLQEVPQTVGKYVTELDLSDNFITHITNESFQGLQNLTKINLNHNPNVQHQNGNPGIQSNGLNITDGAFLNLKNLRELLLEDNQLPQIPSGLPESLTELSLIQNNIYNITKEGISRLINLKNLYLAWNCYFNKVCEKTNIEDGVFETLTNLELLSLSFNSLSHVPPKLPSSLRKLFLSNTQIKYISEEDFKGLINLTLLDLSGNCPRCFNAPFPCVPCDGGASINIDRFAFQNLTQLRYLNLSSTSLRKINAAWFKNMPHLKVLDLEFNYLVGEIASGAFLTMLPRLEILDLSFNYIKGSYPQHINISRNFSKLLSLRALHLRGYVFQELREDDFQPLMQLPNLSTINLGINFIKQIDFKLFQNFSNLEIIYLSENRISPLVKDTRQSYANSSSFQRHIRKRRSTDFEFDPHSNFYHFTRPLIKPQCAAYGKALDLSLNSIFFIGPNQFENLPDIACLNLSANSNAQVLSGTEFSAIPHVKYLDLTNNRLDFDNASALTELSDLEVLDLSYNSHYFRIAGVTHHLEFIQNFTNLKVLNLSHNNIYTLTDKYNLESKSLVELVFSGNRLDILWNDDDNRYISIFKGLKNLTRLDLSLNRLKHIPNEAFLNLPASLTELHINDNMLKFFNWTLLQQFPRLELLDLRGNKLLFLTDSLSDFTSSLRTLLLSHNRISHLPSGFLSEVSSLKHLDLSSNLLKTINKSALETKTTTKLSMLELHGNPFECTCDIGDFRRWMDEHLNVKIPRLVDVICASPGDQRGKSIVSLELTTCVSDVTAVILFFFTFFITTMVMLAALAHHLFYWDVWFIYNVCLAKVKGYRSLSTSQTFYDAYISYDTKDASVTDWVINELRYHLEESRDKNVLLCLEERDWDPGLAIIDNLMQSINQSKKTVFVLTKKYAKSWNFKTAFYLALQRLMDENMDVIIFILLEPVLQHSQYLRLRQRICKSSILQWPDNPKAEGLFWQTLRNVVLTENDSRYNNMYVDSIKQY

IC50 [1]: 3.4 nM
IC50 [2]: 154 nM
CL (h) [3]: 6.2 mL/min/kg
IC50 [4]: 12 nM
Structure (SMILES): [2H]c1ccc2c(N3C[C@@H]4C[C@H](n5cc6c(n5)CNCC6)CN4[C@H](C)C3)ccc(C#N)c2n1 [Example 23B, 2-deuterio-5-[(4R,7S,8aS)-4-methyl-7-(4,5,6,7-tetrahydropyrazolo[3,4-c]pyridin-2-yl)-3,4,6,7,8,8a-hexahydro-1H-pyrrolo[1,2-a]pyrazin-2-yl]quinoline-8-carbonitrile]
